The results in this text go back to patent US20220348563A1, “KDM INHIBITORS AND USES THEREOF” (DANA-FARBER CANCER INSTITUTE, INC., priority 2019, published 2022).

pIC50: −log10 of the molar value.

The experiment deals with T1, KDM3A (Homo sapiens, UniProt Q9Y4C1).
T1 sequence (Q9Y4C1 1-1321): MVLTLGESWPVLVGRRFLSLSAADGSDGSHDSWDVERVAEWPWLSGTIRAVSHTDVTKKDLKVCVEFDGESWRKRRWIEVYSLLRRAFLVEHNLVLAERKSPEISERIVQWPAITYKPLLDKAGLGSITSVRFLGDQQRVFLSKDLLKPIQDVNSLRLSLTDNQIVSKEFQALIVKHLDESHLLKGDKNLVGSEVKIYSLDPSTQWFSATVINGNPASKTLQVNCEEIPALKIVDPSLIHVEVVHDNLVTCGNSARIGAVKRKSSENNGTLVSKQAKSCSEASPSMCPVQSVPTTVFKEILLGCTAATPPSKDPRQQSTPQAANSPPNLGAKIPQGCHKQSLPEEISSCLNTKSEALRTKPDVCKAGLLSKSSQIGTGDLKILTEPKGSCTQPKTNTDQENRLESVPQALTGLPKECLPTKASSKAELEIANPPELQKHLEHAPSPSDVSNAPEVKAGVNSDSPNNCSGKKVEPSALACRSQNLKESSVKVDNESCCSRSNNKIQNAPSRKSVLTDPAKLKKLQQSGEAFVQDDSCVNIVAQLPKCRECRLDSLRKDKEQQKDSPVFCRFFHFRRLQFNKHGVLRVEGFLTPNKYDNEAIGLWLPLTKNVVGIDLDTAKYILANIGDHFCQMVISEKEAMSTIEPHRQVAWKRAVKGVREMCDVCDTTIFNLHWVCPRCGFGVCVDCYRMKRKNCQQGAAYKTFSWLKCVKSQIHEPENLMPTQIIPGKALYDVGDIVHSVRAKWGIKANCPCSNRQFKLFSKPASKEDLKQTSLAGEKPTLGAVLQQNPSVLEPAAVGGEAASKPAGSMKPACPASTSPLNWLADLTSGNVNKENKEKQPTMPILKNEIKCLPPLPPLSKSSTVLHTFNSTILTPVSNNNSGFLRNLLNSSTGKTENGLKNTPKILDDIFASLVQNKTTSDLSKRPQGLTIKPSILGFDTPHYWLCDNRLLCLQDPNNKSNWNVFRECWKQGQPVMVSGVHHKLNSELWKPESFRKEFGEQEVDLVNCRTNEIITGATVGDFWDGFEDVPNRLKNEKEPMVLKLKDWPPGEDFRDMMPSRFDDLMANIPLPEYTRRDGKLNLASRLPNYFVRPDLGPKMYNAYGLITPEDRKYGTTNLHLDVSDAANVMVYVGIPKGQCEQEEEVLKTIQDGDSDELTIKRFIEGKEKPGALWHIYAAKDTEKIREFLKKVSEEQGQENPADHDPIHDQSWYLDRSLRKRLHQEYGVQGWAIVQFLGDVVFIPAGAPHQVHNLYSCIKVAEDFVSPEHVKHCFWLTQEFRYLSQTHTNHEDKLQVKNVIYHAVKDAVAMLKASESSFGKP
The experiment is described as follows: KDM3 AlphaScreen assay (Table 2, ASSAY 9). Type of experiment: biochemical. The note with it: for pIC50: ASSAY 9. As for the experimental part:
AlphaScreen assays were performed in 384-well plate format using white AlphaPlate™ (PerkinElmer®, USA), and transfer of pre-diluted compound (100 nL) was performed using a Janus® Workstation (PerkinElmer®, USA). All subsequent steps were carried out in assay buffer (50 mM 4-(2-hydroxyethyl)-1-piperazineethanesulfonic acid (HEPES), pH 7.5, 0.1% (wt/vol) bovine serum albumin (BSA) and 0.01% (vol/vol) Tween®20). In brief, 10 μL of assay buffer containing demethylase enzyme (2 nM Final) was pre-incubated for 15 min with dilutions of compound. The enzyme reaction was initiated by the addition of substrate (5 μL) consisting of L-ascorbic acid (100 μM Final), […] (OG) (5 μM Final), FAS (10 μM Final) and histone H3(1-21)K9Me3-GGK Biotin (100 nM Final). The enzyme reaction was allowed to proceed for 30 minutes and was stopped by the addition of 5 μL of assay buffer containing ethylenediaminetetraacetic acid (EDTA) (40 mM) and NaCl (1,200 mM). The final concentration of DMSO was 1%. Streptavidin donor beads (0.08 mg/ml) and protein-A-conjugated acceptor beads (0.08 mg/ml) were preincubated for 1 h with antibody to methyl mark (300 ng/mL Final), and the presence of histone H3 product methyl mark was detected using the preincubated AlphaScreen™ beads (5 μL). Detection was allowed to proceed for 2 h at room temperature, and the assay plates were read on the EnVision® 2104 plate reader. Data were normalized to the (no-enzyme) control, and the IC50 values were determined via nonlinear regression curve fit using GraphPad Prism 7.

`COc1ccc(S(=O)(=O)Nc2ccc(F)cc2C(=O)N2CCC(Oc3ccc(-c4ccc(N(C)C)cc4)cn3)CC2)cc1OC` [KDM3-60] gave a pIC50 of 4.46.
With `CN(C)c1ccc(CNc2ccc(F)cc2C(=O)N2CCN(Cc3ccc(N(C)C)cc3)CC2)cc1` [Compound 5, (2-((4-(dimethylamino)benzyl)amino)-5-fluorophenyl)(4-(4-(dimethylamino)benzyl)piperazin-1-yl)methanone], the “KDM3A inhibition, verdict in words on Table 2” value is listed as “potent KDM3A inhibitors” and the pIC50 was 5.12.
`CN(C)c1ccc(CNC(=O)/C=C\C(=O)N2CCC(Oc3ccc(-c4ccc(N(C)C)cc4)cn3)CC2)cc1` [KDM3-47, (Z)-N-(4-(dimethylamino)benzyl)-4-(4-((5-(4-(dimethylamino)phenyl)pyridin-2-yl)oxy)piperidin-1-yl)-4-oxobut-2-enamide] had a pIC50 of 4.89.
Take `CN(C)c1ccc(CCC(=O)Nc2cc(F)ccc2C(=O)N2CCC(Oc3ccc(-c4ccc(N(C)C)cc4)cn3)CC2)cc1` [KDM3-51, 3-(4-(dimethylamino)phenyl)-N-(2-(4-((5-(4-(dimethylamino)phenyl)pyridin-2-yl)oxy)piperidine-1-carbonyl)-5-fluorophenyl)propanamide]: the pIC50 was 4.85.
